In publication PMC2216945 (The Journal of General Physiology, 1995) one finds Ki data, which are given here for 1 compound.

The term Ki denotes a measure of affinity in units of concentration, obtained from inhibition or displacement. Low readings indicate tighter binding, high ones weaker binding.

Each structure is given as a SMILES string.

The target in this test is cystic fibrosis transmembrane conductance regulator (CFTR) (Homo sapiens, UniProt P13569). Nature of the test: inside-out patch clamp, inhibition of ATP-dependent channel open probability. It is filed as cell-based. (In general: In patch-clamp work, channel activity is measured electrically.)
Sequence of cystic fibrosis transmembrane conductance regulator (CFTR) (P13569 whole entry): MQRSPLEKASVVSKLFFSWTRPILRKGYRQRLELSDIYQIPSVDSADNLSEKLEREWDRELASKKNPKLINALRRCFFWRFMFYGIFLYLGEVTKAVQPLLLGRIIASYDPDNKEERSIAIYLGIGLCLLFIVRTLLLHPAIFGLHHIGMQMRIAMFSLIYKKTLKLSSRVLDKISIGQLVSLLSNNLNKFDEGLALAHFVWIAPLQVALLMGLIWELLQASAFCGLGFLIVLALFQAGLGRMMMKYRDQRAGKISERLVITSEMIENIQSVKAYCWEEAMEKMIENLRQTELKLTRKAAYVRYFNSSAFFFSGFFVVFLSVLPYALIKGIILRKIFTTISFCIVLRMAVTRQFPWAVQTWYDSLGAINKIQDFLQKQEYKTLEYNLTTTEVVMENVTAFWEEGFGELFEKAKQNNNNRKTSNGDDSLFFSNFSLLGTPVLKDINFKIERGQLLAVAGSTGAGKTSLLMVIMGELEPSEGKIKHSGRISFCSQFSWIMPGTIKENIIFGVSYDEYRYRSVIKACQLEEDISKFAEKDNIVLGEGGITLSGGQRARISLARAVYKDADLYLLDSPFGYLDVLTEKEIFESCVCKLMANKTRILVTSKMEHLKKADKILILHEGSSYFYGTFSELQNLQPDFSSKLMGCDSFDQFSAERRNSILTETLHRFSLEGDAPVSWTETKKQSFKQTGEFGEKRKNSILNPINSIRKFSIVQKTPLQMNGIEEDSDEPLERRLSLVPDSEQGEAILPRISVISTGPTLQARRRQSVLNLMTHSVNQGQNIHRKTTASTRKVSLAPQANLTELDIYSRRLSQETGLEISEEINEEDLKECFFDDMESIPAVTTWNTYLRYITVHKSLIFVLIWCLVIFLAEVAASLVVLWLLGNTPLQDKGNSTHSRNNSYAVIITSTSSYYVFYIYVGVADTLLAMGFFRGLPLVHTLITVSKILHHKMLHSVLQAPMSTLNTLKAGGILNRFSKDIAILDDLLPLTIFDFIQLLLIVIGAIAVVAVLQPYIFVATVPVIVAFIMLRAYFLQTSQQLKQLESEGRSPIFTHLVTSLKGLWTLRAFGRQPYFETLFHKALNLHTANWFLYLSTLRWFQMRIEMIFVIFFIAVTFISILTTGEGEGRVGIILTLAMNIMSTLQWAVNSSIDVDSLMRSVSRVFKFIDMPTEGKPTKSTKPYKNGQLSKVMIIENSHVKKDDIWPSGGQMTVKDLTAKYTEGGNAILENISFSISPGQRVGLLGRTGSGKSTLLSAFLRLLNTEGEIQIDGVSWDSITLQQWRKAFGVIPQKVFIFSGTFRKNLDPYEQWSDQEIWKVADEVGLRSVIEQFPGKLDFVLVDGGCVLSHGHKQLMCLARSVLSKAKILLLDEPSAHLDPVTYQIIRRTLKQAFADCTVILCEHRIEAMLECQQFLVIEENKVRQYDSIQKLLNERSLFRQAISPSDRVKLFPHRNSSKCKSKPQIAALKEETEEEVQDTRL

As for `Nc1ncnc2c1ncn2[C@@H]1O[C@H](COP(=O)(O)OP(=O)(O)O)[C@@H](O)[C@H]1O` [ADP], the inhibitory constant (Ki) worked out at 16 ± 9 µM.
